From US11485720B2, “Anti-infective agents” (University of Dundee, priority 2016, dated 2022)
Converted amounts (≈) assume the structure as drawn. “And” between values parts separate entries of the source, which are not always exact repeats. Identical values can stand only once. Like-named read-outs stand apart in the source and are kept apart here.

Legend:
PfLysRS = PfLysRS (Plasmodium falciparum, UniProt Q8IDJ8); details: cited from earlier work
[1] = target: Schistosoma mansoni (Sm) lysyl-tRNA synthetase; details: cited from earlier work
[2] = tested on: blood and liver stages of Plasmodium; details: cited from earlier work
[3] = cited from earlier work
[4] = target: T1, Plasmodium falciparum lysyl t-RNA synthetase (Pf-KRS1) (Plasmodium falciparum, UniProt Q8IDJ8); test: Pf-KRS1 inhibition biochemical assay (Kinase-Glo, ATP depletion)
T1 construct: Pf KRS1-; made in house; host or cells: E. coli BL21 (DE3)
T1 sequence (Q8IDJ8 entry or part of it, looked up, natural form): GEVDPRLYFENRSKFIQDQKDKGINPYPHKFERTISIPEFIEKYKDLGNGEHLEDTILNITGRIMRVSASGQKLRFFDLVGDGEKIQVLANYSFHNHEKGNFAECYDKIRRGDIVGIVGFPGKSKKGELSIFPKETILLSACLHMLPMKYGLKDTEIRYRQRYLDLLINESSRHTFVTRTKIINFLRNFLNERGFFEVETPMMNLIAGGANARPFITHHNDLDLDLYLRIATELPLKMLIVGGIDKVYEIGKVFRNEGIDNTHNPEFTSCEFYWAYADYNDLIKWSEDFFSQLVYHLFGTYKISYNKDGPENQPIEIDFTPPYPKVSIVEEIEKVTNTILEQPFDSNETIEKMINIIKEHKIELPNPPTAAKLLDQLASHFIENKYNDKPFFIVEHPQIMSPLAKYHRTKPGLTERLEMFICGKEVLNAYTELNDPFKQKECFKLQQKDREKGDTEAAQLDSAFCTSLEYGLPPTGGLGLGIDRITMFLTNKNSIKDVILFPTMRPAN
Summary of the method: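 Recombinant Pf-KRS1 (75 nM working concentration) in HEPES/KOH/MgCl2/KCl buffer with 3 μM ATP, 60 μM L-lysine, 0.4 mg/ml yeast tRNA and pyrophosphatase; compounds at 50 μM–2.5 nM final. Reaction ran 5 h at room temperature, then remaining ATP was read by Kinase-Glo luminescence. IC50 came from nonlinear fits of % inhibition against controls.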

[5] = tested on: Plasmodium falciparum strain 3D7; test: Plasmodium falciparum 3D7 in vitro growth inhibition (SYBRgreen I); type: cell-based; details: Plasmodium falciparum, 3D7; read-out: pEC50 for Pf 3D7 (converted)
Summary of the method: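 10-point, 1-in-3 dilution series from a top concentration of 50 μM; parasite growth read as SYBRgreen I fluorescence on double-stranded DNA (ex 485/em 528 nm). EC50 = concentration causing 50% parasite death, from at least 3 independent experiments.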

Cryptosporidium parvum [6] = test: In vitro Crytosporidium inhibition assay; type: cell-based; details: for EC50: Cryptosporidium parvum, read-out: Cryptosporidium parvum pEC50 (converted)
Text: Assay Method for Measurement of In Vitro Inhibition of Crytosporidium.
These experiments were run in accordance with the method of Besssoff et. al. Antimicrob. Agents Chemother. 2013, 57:1804-1814. Results from these experiments are provided in the Experimental Results hereinafter.

Leishmania donovani [7] = test: Leishmania donovani intramacrophage inhibition assay (Ld-INMAC); type: cell-based; details: intramacrophage amastigotes in THP-1 cells, read-out: Ld-INMAC pEC50 (converted)
Description: Assay Method for Measurement of In Vitro Inhibition of Leishmania donovani.
These experiments were run in accordance with the method as detailed herein and results from these experiments are provided in the Experimental Results hereinafter.
The intramacrophage Leishmania assay was performed as described in de Rycker et al (Antimicrob Agents Chemother, 2013 July; 57(7):2913-22. doi: 10.1128/AAC.02398-12). Briefly, 1 μl of compound was pre-dispensed into 384 well sterile intermediary plates. For single point screening, amphotericin B was added to all wells of column 24 as a positive control (final concentration 2 μM) and DMSO to column 23. For potency determinations, ten-point, one in three dilution curves were created with the highest concentration being 50 μM and on each plate a control curve of amphotericin B was included. Controls were as follows: columns 11 and 12: DMSO, columns 23 and 24: amphotericin B (final concentration 2 μM). To the intermediary plates, 100 μl of THP-1 media was added and plates were shaken for >5 min to ensure complete mixing. THP-1 cells (8,000 per well, 50 μl) were plated into black clear-bottom 384 well plates (Corning) in presence of 10 nM PMA. After 20 min at room temperature, the plates were incubated at 37° C. under 5% CO2 in a humidified incubator for 75 h. The cells were then washed with […] sterile phosphate buffered saline (PBS) supplemented with 1 mM CaCl2, 0.5 mM MgCl2, 0.1% (w/v) bovine serum albumin (PBS-A) and amastigotes were added to all wells at a multiplicity of infection of 5 (40,000 amastigotes per well). After 40 min at room temperature, plates were returned to the incubator. Amastigotes were incubated in the presence of macrophages for 16 h. Any remaining extracellular amastigotes were subsequently removed with an overflow wash of 1 ml PBS-A per well (wash buffer is being aspirated from the top of the well as it is being dispensed) followed by addition of 25 μl of the compound pre-dilutions using a Matrix Hydra DT pipetting station. The final dilution of each compound was 200-fold. Plates were incubated for 72 h and then washed (250 μl PBS-A) and fixed (4% (v/v) formaldehyde-PBS, 30 min, room temperature). After fixation, the wells were washed with 250 μl PBS, stained (10 μg/ml DAPI, 0.4 μg ml-1 HCS Cellmask Deep Red in PBS+0.1% (v/v) Triton X-100, 30 min, room temperature) and washed with 250 μl PBS. Finally, PBS+0.05% (v/v) thimerosal was added to the wells, the plates were sealed and imaged on a high-content microscope (GE IN Cell 1000 or GE IN Cell 2000) using a 10× objective. Image analysis was carried out with GE IN Cell Analyzer 1000 Workstation using the “Multi Target Analysis” module. […]

THP-1 cells = test: THP-1 host cell count in intramacrophage Leishmania assay; type: cell-based; details: Homo sapiens, host cell toxicity, read-out: THP1 pEC50 (converted)
Description: The intramacrophage Leishmania assay was performed as described in de Rycker et al (Antimicrob Agents Chemother, 2013 July; 57(7):2913-22. doi: 10.1128/AAC.02398-12). Briefly, 1 μl of compound was pre-dispensed into 384 well sterile intermediary plates. For single point screening, amphotericin B was added to all wells of column 24 as a positive control (final concentration 2 μM) and DMSO to column 23. For potency determinations, ten-point, one in three dilution curves were created with the highest concentration being 50 μM and on each plate a control curve of amphotericin B was included. Controls were as follows: columns 11 and 12: DMSO, columns 23 and 24: amphotericin B (final concentration 2 μM). To the intermediary plates, 100 μl of THP-1 media was added and plates were shaken for >5 min to ensure complete mixing. THP-1 cells (8,000 per well, 50 μl) were plated into black clear-bottom 384 well plates (Corning) in presence of 10 nM PMA. After 20 min at room temperature, the plates were incubated at 37° C. under 5% CO2 in a humidified incubator for 75 h. The cells were then washed with […] sterile phosphate buffered saline (PBS) supplemented with 1 mM CaCl2, 0.5 mM MgCl2, 0.1% (w/v) bovine serum albumin (PBS-A) and amastigotes were added to all wells at a multiplicity of infection of 5 (40,000 amastigotes per well). After 40 min at room temperature, plates were returned to the incubator. Amastigotes were incubated in the presence of macrophages for 16 h. Any remaining extracellular amastigotes were subsequently removed with an overflow wash of 1 ml PBS-A per well (wash buffer is being aspirated from the top of the well as it is being dispensed) followed by addition of 25 μl of the compound pre-dilutions using a Matrix Hydra DT pipetting station. The final dilution of each compound was 200-fold. Plates were incubated for 72 h and then washed (250 μl PBS-A) and fixed (4% (v/v) formaldehyde-PBS, 30 min, room temperature). After fixation, the wells were washed with 250 μl PBS, stained (10 μg/ml DAPI, 0.4 μg ml-1 HCS Cellmask Deep Red in PBS+0.1% (v/v) Triton X-100, 30 min, room temperature) and washed with 250 μl PBS. Finally, PBS+0.05% (v/v) thimerosal was added to the wells, the plates were sealed and imaged on a high-content microscope (GE IN Cell 1000 or GE IN Cell 2000) using a 10× objective. Image analysis was carried out with GE IN Cell Analyzer 1000 Workstation using the “Multi Target Analysis” module. Settings for segmentation were as follows: nuclei: minimum area: 142.384 μm^2, sensitivity: 81, method: top-hat; cells: characteristic area: 2500 μm^2, sensitivity: 60, method: multiscale top-hat; organelles (amastigotes): granule size 1-3, 3 scales, sensitivity: 90, detection in entire cell. […]

Leishmania donovani [8] = test: Ld-cAxAm-TP-pMIC assay; type: cell-based; details: read-out: Ld-cAxAm-TP-pMIC pEC50 (converted)
Hep G2 = Hep G2 in-vitro cytotoxicity assay; type: cell-based; details: Homo sapiens, HepG2, read-out: Hs HEPG2 pEC50 (converted)
Summary of the method: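 Hep G2 human hepatocyte carcinoma cells serve as a general mammalian cell toxicity indicator, following the Mersch-Sundermann procedure.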

Plasmodium falciparum = test: Anti-malarial in vivo efficacy, Plasmodium falciparum SCID mouse model; details: 20 mg/kg, 4 days
Text: Measurement of Anti-Malarial In Vivo Efficacy The in vivo measurement of the potential efficacy of compounds of formula (I) in a malarial model has been carried out. These in vivo experiments were run in accordance with the method published in Jimenez-Diaz, M. B. et al., Antimicrob. Agents Chemother. 53, 4533-4536, (2009). Results from these experiments are provided in the Experimental Results hereinafter.

M. tuberculosis H37Rv = test: In vitro inhibition of M. tuberculosis H37Rv (MIC, resazurin); type: cell-based; details: Mycobacterium tuberculosis, read-out: Mtb MIC
Cryptosporidium parvum [9] = test: Anti-Cryptosporidium in vivo efficacy, NOD SCID gamma mouse model; details: 50 mg/kg, twice a day (bid), 4 days
Text: Measurement of Anti-Cryptosporidium In Vivo Efficacy
The in vivo measurement of the potential efficacy of compounds of formula (I) in two cryptosporidium models has been carried out.
The cryptosporidiosis NOD SCID gamma mouse model were run as follows: Male NOD SCID gamma mice (NOD.Cg-Prkdc^scid Il2rg^tm1Wjl/SzJ, Jackson Labs) were infected approximately 2 weeks post weaning with 10^5 C. parvum Iowa strain oocysts by oral gavage. Four mice were used per experimental group. This establishes a chronic, asymptomatic infection of the small intestine, cecum, and biliary tree. Fecal parasite shedding is monitored by quantitative PCR to amplify C. parvum DNA. One week after infection (which is the timing with which shedding becomes uniformly detected), compounds are dosed by oral gavage based. Treatment continued for four days total. Fecal oocyst shedding is reported on day 1 (7 days after initial infection with sample taken just prior to the first dose of compound) and day 5 (1 day after completion of the last dose).

[10] = read-out: Pf-KRS pIC50 (converted)

Chain of PfLysRS (Q8IDJ8 1-583): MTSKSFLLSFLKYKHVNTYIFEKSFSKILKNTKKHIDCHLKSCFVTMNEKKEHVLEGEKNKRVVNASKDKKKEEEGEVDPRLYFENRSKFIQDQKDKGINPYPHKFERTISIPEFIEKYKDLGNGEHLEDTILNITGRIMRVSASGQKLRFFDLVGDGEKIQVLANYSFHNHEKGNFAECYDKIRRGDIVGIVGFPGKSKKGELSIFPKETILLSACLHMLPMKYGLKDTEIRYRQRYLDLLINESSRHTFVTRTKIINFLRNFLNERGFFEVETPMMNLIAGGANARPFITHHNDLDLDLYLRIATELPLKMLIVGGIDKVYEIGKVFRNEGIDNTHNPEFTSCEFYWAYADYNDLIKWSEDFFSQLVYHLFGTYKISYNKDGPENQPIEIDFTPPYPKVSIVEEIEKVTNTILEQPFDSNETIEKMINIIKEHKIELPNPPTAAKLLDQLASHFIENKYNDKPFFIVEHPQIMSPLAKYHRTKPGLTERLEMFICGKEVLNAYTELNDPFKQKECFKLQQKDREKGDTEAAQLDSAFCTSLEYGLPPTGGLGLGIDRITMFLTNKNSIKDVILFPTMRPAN

Compound | selectivity vs HsLysRS (PfLysRS) | IC50 ([1]; Sharma et al., read-out: Sm LysRS IC50) | selectivity vs HsLysRS ([1]; Sm LysRS vs HsLysRS) | inhibition of blood and liver stages of Plasmodium [2] | bioavailability [3] | IC50 [4, 10] | EC50 [5] | EC50 (Cryptosporidium parvum [6]) | EC50 (Leishmania donovani [7]) | EC50 (THP-1 cells) | EC50 (Leishmania donovani [8]) | EC50 (Hep G2) | Cryptosporidium parvum pEC50 (Cryptosporidium parvum [6]) | % Reduction in parasitaemia (Plasmodium falciparum) | MIC (M. tuberculosis H37Rv) | % Reduction in parasitaemia (Cryptosporidium parvum [9]) | IC50 ([4]; Pf-KRS pIC50)
C[C@H]1CCC[C@H](C[C@H]2Cc3cc(O)cc(O)c3C(=O)O2)O1 [Cladosporin, cladosporin] | more than 100 fold | 97 nM | more than 60 fold | nanomolar inhibitor | poorly bioavailable |  |  |  |  |  |  |  |  |  |  |  | 
O=C(NCC1(O)CCCCC1)c1cc(=O)c2cc(Cl)ccc2o1 [Example 48, 6-chloro-N-[(1-hydroxycyclohexyl)methyl]-4-oxo-chromene-2-carboxamide] |  |  |  |  |  | 126 nM | 398 nM | 63.1 nM | 7940 nM | > 50100 nM | 10000 nM | 31600 nM |  |  |  |  | 
O=C(NCC1(O)CCC(F)(F)CC1)c1cc(=O)c2cc(F)ccc2o1 [Example 54, N-[(4,4-difluoro-1-hydroxy-cyclohexyl)methyl]-6-fluoro-4-oxo-chromene-2-carboxamide] |  |  |  |  |  | 126 nM and 251 nM |  | 1260 nM | 31600 nM | 50100 nM | 12600 nM | 50100 nM | 5.8 | 99.2% |  |  | 
O=C(NCC1(O)CCCCC1)c1cc(=O)c2cc(F)cc(O)c2o1 [Example 74, 6-fluoro-8-hydroxy-N-((1-hydroxycyclohexyl)methyl)-4-oxo-4H-chromene-2-carboxamide] |  |  |  |  |  | 50.1 nM | 63.1 nM | 39.8 nM |  |  |  | 31600 nM |  |  | 25 µM (≈ 8.38 µg/mL) | 92.5% | 
O=C(NCC1(O)CCCCC1)c1cc(=O)c2ccc(F)c(O)c2o1 [Example 77, 7-fluoro-8-hydroxy-N-((1-hydroxycyclohexyl)methyl)-4-oxo-4H-chromene-2-carboxamide] |  |  |  |  |  |  | 126 nM | 126 nM |  |  |  | 39800 nM |  |  |  | 99.6% | 100 nM
O=C(NCC1CCCCC1)c1cc(=O)c2ccc(F)c(O)c2o1 [Example 78, N-(cyclohexylmethyl)-7-fluoro-8-hydroxy-4-oxo-4H-chromene-2-carboxamide] |  |  |  |  |  | 79.4 nM | 100 nM | 1 nM |  |  |  | 20000 nM |  |  |  | 99.4% | 
O=C(NCC1(O)CCCCC1)c1cc(=O)c2cc(O)cc(F)c2o1 [Example 81, 8-fluoro-6-hydroxy-N-((1-hydroxycyclohexyl)methyl)-4-oxo-4H-chromene-2-carboxamide] |  |  |  |  |  | 200 nM |  | 126 nM | 20000 nM | > 50100 nM | 6310 nM | 15800 nM |  |  |  |  | 
